Values quoted from earlier work as cited in patent US20200170998A1, “UMBILICAL CORD BLOOD SERUM AND UMBILICAL CORD BLOOD PLASMA PREPARATION IN COMBINATION WITH A NONSTEROIDAL ANTI-INFLAMMATORY DRUG AND FREEZE-DRYING THE COMPOSITION” (CELLULA LLC, priority 2018, published 2020).

Test system: corneal epithelial cells
Conditions: in-vitro; control a balanced salt solution

SMILES	toxicity on corneal epithelial cells
O=C(O)Cc1ccccc1Nc1c(Cl)cccc1Cl [Diclofenac]	significant cellular toxicity
CC(=O)[C@@]1(O)CC[C@H]2[C@@H]3C[C@H](C)C4=CC(=O)C=C[C@]4(C)[C@@]3(F)[C@@H](O)C[C@@]21C [Flourometholone]	most severe toxicity
Nc1c(CC(=O)O)cccc1C(=O)c1ccc(Br)cc1 [bromfenac]	less cellular damage and showed no difference with the control
CC(C(=O)O)c1ccc2c(c1)Cc1cccnc1O2 (stereo not shown) [pranoprofen]	less cellular damage and showed no difference with the control
